Assay results reported in article doi:10.1101/2021.12.08.471775v2 (biorxiv, 2022).
pKi: −log10 of the molar value.

Target: α4β2Rs (rat α4β2 nAChRs) (Rattus norvegicus, UniProt P09483+P12390)
Type: cell-based

Chain of α4β2Rs (rat α4β2 nAChRs) (P09483 31-630): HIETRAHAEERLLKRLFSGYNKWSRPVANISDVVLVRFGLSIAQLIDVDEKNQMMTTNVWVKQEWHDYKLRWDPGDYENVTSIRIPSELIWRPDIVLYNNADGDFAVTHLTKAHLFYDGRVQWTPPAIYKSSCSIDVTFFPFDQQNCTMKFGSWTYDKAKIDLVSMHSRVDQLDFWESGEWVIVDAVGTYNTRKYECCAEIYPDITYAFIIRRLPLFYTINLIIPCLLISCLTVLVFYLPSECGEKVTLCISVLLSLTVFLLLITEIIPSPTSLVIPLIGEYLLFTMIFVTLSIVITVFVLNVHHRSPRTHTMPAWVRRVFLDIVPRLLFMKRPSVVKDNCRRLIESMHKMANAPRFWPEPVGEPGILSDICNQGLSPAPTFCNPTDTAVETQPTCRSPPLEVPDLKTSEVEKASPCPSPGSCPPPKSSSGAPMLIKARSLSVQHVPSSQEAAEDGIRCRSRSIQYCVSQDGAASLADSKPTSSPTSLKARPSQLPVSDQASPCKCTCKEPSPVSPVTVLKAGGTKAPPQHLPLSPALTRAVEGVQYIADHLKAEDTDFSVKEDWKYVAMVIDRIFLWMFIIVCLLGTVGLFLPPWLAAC
Chain of α4β2Rs (rat α4β2 nAChRs) (P12390 25-500): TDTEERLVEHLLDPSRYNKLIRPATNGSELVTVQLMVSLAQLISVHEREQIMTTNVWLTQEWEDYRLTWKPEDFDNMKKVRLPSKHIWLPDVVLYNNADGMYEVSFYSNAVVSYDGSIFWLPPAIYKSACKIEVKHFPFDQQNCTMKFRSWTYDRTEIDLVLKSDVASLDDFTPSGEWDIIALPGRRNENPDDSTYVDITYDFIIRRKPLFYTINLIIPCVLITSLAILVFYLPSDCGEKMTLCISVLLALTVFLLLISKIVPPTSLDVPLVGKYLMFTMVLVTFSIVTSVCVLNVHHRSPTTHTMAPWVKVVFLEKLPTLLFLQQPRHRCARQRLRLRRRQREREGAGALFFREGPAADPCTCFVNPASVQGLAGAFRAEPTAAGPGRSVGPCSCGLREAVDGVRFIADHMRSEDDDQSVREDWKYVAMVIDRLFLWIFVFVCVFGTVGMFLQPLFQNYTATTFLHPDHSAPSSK

In the case of `Fc1ncccc1OC[C@@H]1C=CCN1` [Nifene], the pKi was 9.51.
